# Values of other authors in patent US9585955B2 (priority 2005, dated 2017).
# Details: 20° C. and 2 atm pressure
smiles,measurement,value
[N-]=[N+]=O [Nitrous oxide],volume of water in which one liter of the gas dissolves,1.5 L
